In US11180474B2 (BRISTOL-MYERS SQUIBB COMPANY, priority 2016, dated 2021):

molecular target: T1, human TLR9 (Homo sapiens, UniProt Q9NR96); experiment: TLR9 inhibition reporter assay (HEK-Blue cells, SEAP reporter, ODN2006 stimulation); assay type: cell-based; details: HEK-Blue cells overexpressing human TLR9, ODN2006 5 nM
T1 construct: host or cells: HEK-Blue cells
T1 sequence (Q9NR96 26-1032): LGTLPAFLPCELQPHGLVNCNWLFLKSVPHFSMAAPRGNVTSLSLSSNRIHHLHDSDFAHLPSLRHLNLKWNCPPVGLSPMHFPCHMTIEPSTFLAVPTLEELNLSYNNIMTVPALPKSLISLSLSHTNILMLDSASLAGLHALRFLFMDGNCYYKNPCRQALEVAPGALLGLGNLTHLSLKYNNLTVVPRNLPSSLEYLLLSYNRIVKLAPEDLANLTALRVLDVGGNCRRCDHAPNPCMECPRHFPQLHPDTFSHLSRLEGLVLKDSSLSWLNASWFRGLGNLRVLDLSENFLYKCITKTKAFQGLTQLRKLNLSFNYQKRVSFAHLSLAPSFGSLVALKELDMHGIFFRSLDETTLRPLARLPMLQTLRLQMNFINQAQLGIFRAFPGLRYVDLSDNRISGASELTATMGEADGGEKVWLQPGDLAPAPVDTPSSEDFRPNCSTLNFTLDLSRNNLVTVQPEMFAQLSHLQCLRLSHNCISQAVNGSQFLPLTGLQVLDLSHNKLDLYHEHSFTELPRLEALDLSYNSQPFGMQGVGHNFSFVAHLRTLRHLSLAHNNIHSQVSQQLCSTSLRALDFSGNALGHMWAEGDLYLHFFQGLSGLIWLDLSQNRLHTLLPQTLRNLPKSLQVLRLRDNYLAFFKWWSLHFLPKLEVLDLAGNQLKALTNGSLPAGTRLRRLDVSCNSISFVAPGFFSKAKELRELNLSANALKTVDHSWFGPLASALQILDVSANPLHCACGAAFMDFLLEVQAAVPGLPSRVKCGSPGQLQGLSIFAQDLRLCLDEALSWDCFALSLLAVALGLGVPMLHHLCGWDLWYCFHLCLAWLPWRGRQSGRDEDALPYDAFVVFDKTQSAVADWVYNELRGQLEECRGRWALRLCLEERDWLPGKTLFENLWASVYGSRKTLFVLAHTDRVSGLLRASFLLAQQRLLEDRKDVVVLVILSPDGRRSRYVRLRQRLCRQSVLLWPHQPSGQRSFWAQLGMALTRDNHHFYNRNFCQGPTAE
Outline: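 Compound treatment: 30 min, RT, 0.05 nM–50 μM final. Agonist: TLR7 gardiquimod 7.5 μM; TLR8 R848 15.9 μM; TLR9 ODN2006 5 nM. Incubation 22 h, 37 °C, 5% CO2. Readout SEAP, HEK-Blue Detection.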

Row | Structure (SMILES) | IC50 [nM]
1 | CCc1c(-c2ccc(OC)c(OC)c2)[nH]c2ccc(C3CCN(C(=O)CN4CCCC(C(=O)O)C4)CC3)cc12 (racemic) [Example 176, 1-(2-(4-(2-(3,4-dimethoxyphenyl)-3-ethyl-1H-indol-5-yl)piperidin-1-yl)-2-oxoethyl)piperidine-3-carboxylic acid] | ≥ 50000
2 | CCc1c(-c2ccc(OC)c(OC)c2)[nH]c2ccc(C3CCN(C(=O)CN4CCCC(C(=O)N(CC)CC)C4)CC3)cc12 (single isomer, unassigned) [Example 178, 1-(2-(4-(2-(3,4-dimethoxyphenyl)-3-ethyl-1H-indol-5-yl)piperidin-1-yl)-2-oxoethyl)-N,N-diethylpiperidine-3-carboxamide] | 5230
3 | CCc1c(-c2ccc(OC)c(OC)c2)[nH]c2ccc(C3CCN(C(=O)CN4CCCC(C(=O)N(CC)CC)C4)CC3)cc12 (single isomer, unassigned) [Example 179, 1-(2-(4-(2-(3,4-dimethoxyphenyl)-3-ethyl-1H-indol-5-yl)piperidin-1-yl)-2-oxoethyl)-N,N-diethylpiperidine-3-carboxamide] | 747
4 | COc1ccc(-c2[nH]c3ccc(C4CCN(C5CCN(CC(C)C)CC5)CC4)cc3c2C)cc1OC [Example 6, 2-(3,4-dimethoxyphenyl)-5-(1′-isobutyl-[1,4′-bipiperidin]-4-yl)-3-methyl-1H-indole] | 221
5 | COc1ccc(-c2[nH]c3ccc(C4CCN(C5CCN(Cc6ccccc6)CC5)CC4)cc3c2C)cc1OC [Example 9, 5-(1′-benzyl-[1,4′-bipiperidin]-4-yl)-2-(3,4-dimethoxyphenyl)-3-methyl-1H-indole] | 360
6 | COc1ccc(-c2[nH]c3ccc(C4CCN(C5CCN(C(C)C)CC5)CC4)cc3c2C)cc1OC [Example 10, 2-(3,4-dimethoxyphenyl)-5-(1′-isopropyl-[1,4′-bipiperidin]-4-yl)-3-methyl-1H-indole] | 202
7 | CNCCN1CCC(c2ccc3c(c2)c(C)c(-c2ccc(OC)c(OC)c2)n3C)CC1 [Example 114, 2-(4-(2-(3,4-dimethoxyphenyl)-1,3-dimethyl-1H-indol-5-yl)piperidin-1-yl)-N-methylethan-1-amine] | 737
8 | COc1ccc(-c2[nH]c3cc(C)c(C4CCN(C5CCN(C(C)C)CC5)CC4)cc3c2C)cc1OC [Example 115, 2-(3,4-dimethoxyphenyl)-5-(1′-isopropyl-[1,4′-bipiperidin]-4-yl)-3,6-dimethyl-1H-indole-di-trifluoroacetic acid] | 77
9 | CNCCN1CCC(c2ccc3[nH]c(-c4ccc(OC)c(OC)c4)c(CC(C)C)c3c2)CC1 [Example 116, trifluoroacetic acid] | 830
10 | COc1ccc(-c2[nH]c3ccc(C4CCN(C5CCN(CC(C)C)CC5)CC4)cc3c2Cl)cc1OC [Example 120, 3-chloro-2-(3,4-dimethoxyphenyl)-5-(1′-isobutyl-[1,4′-bipiperidin]-4-yl)-1H-indole di-trifluoroacetic acid] | 157
11 | CCCc1c(-c2ccc(OC)c(OC)c2)[nH]c2ccc(C3CCN(C4CCN(CC(C)C)CC4)CC3)cc12 [Example 121, 2-(3,4-dimethoxyphenyl)-5-(1′-isobutyl-[1,4′-bipiperidin]-4-yl)-3-propyl-1H-indole-di-trifluoroacetic acid] | 378
12 | CCc1c(-c2ccc(OC)c(OC)c2)[nH]c2ccc(C3CCNCC3)cc12 [Example 122, 2-(3,4-dimethoxyphenyl)-3-ethyl-5-(piperidin-4-yl)-1H-indole] | 1410
13 | CCc1c(-c2ccc(OC)c(OC)c2)[nH]c2ccc(C3CCN(C4CCN(CC(C)C)CC4)CC3)cc12 [Example 123, 2-(3,4-dimethoxyphenyl)-3-ethyl-5-(1′-isobutyl-[1,4′-bipiperidin]-4-yl)-1H-indole-di-trifluoroacetic acid] | 170
14 | CCc1c(-c2ccc(OC)c(OC)c2)[nH]c2ccc(C3CCN(C4CCN(Cc5cnc(C)o5)CC4)CC3)cc12 [Example 124, 5-((4-(2-(3,4-dimethoxyphenyl)-3-ethyl-1H-indol-5-yl)-[1,4′-bipiperidin]-1′-yl)methyl)-2-methyloxazole] | 1280
